{
  "source": "patent US20220411478A1",
  "about": "“CD70 TARGETED CHIMERIC ANTIGEN RECEPTOR (CAR) T CELLS AND USES THEREOF” (priority 2019, published 2022)",
  "key": {"Molm13 [1]": {"system": "Molm13", "test": "CD70 and CD33 expression on AML in vivo after AZA (femur aspirates, flow cytometry)", "design": "species or system NSG mice", "conditions": "five days of AZA IP", "from_the_text": "(§1) The following antibody clones targeting their respective antigens were used for flow cytometric analysis where indicated: CD70 (113-16, Biolegend), PeCy7 isotype (MOPC-21, Biolegend), CD69 (FN50, Biolegend), CD107a (H4A3, Biolegend), mouse TER-119 (TER-119, Biolegend), mouse NK-1.1 (PK136, Biolegend), mouse Ly-6G/Ly-6C (Gr-1, Biolegend), mouse CD11b (Biolegend). In general, cells were stained for fifteen minutes in the dark at 4 degrees Celsius and washed in PBS with 2% FBS. When used, DAPI was added to establish live versus dead separation. Trucount tubes (BD Biosciences, 340334) were used for murine blood CAR quantification according to kit instructions. Quantum Simply Cellular beads (Bangs Laboratories, 815) were used to quantify CD70 surface expression.\n4.3.1 was used for analysis.\nFemur aspirates were analyzed for tumor cells and their CD70 expression via flow cytometry (FIG. 4C). CD70 expression level was compared to isotype controls for each mouse."}, "Molm13 [2]": {"system": "Molm13", "test": "Real-time cytotoxicity assay (impedance) after AZA incubation of CAR-T cells", "type": "cell-based, human", "conditions": "CAR-T cells treated in 1 μM AZA, after 96 hours", "description": "Cell index was recorded as a measure of impedance using the xCELLigence RTCA SP instrument (ACEA biosciences). […] 125,000 Molm13 cells per well were then plated for 28 hours followed by administration of 125,000 CAR-T cells. Cell index was tracked for 96 hours."}, "CD70 CAR-T cells [3]": {"system": "CD70 CAR-T cells", "test": "Plate bound antigen activation assay after AZA incubation", "type": "cell-based, human", "conditions": "100 μM AZA (supratherapeutic), 24 hours, washed, plate-bound CD70 overnight", "description": "After washing in PBS, trD27 or CAR T cells were added for 12 hours followed by flow cytometric staining for CD69."}, "Molm13 [4]": {"system": "Molm13", "test": "Aggressive Molm13 AML xenograft, azacitidine with CD70 CAR-T cells", "method": "For IHC, murine femurs were washed in PBS and then incubated overnight in 4% paraformaldehyde (PF Thermo-Fisher Scientific AAJ19943K2), followed by an overnight incubation in Cal-ex decalcifier (Fisher Scientific, CS510-1D) and then storage in 70% ethanol until staining. Antibody clones for IHC included the following: CD3 (2GV6, Roche) and CD45 (D9M81, Cell Signaling Technology).\nNOD-SCID-γ chain−/− (NSG) (Jackson Laboratories) mice were engrafted with Molm13 cell lines as described for the individual experiments. Mice were maintained at the MGH Center for Cancer Research and all care and conducted experiments were carried out using protocols approved by the Massachusetts General Hospital Institutional Animal Care and Use Committee. […] Cryopreserved CD70 CAR T cells or untransduced T cells were injected intravenously via tail vein at the indicated time points. Tumor burden was monitored via bioluminescence following intraperitoneal injection of D-luciferin substrate solution. AMI spectral imaging was used to perform the image capture and IDL software v. 4.3.1 was used for analysis. Animals were euthanized per the experimental protocol or when they met a priori defined endpoints by IACUC.\nA complementary technique was used to verify tumor burden and CAR-T cell expansion. […] To determine if these were cancer cells or infiltrating CAR-T cells, human CD3 was stained."}, "[5]": {"system": "OCI-AML3 and Molm13 AML lines", "test": "CD70 surface expression after incubation with AZA (flow cytometry), AML lines", "type": "cell-based, human", "from_the_text": "as §1"}, "CD70 CAR-T cells [6]": {"system": "CD70 CAR-T cells", "test": "AZA exposure of CD70 CAR-T cells: cell number and viability", "type": "cell-based, human", "conditions": "increasing concentrations of AZA, 24 hours, IL-2"}, "CD70 CAR-T cells [7]": {"system": "CD70 CAR-T cells", "test": "T-cell subset and activation/exhaustion markers under AZA, co-culture with Molm13", "conditions": "highest concentrations of AZA"}, "[8]": {"system": "solid tumor cell lines as well as primary AML blasts", "conditions": "hypomethylation of the CD70 promoter; cited from earlier work"}},
  "data": [
    {"smiles": "Nc1ncn([C@@H]2O[C@H](CO)[C@@H](O)[C@H]2O)c(=O)n1", "note": "[AZA, azacitidine]", "values": [
      {"measurement": "increase in myeloid marker CD33", "setting": "Molm13 [1]", "result": "not observed"},
      {"measurement": "CAR-T cytotoxicity vs control", "setting": "Molm13 [2]", "result": "no statistically significant difference from control"},
      {"measurement": "CAR-T cell activation (CD69) compared to control", "setting": "CD70 CAR-T cells [3]", "result": "significant reduction in activation"},
      {"measurement": "treatment effect / tumor control (BLI)", "setting": "Molm13 [4]; AZA 2.5 mg/kg/day IP day +18 for 5 days, T cells day +22", "result": "slight treatment effect"},
      {"measurement": "human CD45 staining of bones (immunohistochemistry)", "setting": "Molm13 [4]; femurs at sacrifice", "result": "abundant human CD45 staining"},
      {"measurement": "CD70 expression", "setting": "[5]; 10 μM AZA, FIG. 15, cell line not named", "result": "bulk increase in CD70 expression"},
      {"measurement": "CD70 expression", "setting": "[5]; incubated with AZA for 20 and 44 hours", "result": "increase in CD70 expression at higher concentrations"},
      {"measurement": "number of CAR-T cells surviving", "setting": "CD70 CAR-T cells [6]", "result": "same number of CAR-T cells survived"},
      {"measurement": "viability of CAR-T cells", "setting": "CD70 CAR-T cells [6]", "result": "preserved across all conditions"},
      {"measurement": "PD-1", "setting": "CD70 CAR-T cells [7]", "result": "decreases"},
      {"measurement": "Tim 3", "setting": "CD70 CAR-T cells [7]", "result": "decreases"},
      {"measurement": "effector memory phenotypes", "setting": "CD70 CAR-T cells [7]", "result": "increase in effector memory phenotypes"},
      {"measurement": "CD70 surface expression", "setting": "[8]", "result": "increased CD70 surface expression"}
    ]}
  ]
}
